Earlier results, collected in article PMC11876601 (Molecular Systems Biology, 2025).

What was measured:
[1] = test system: CSNK2A1;CSNK2A3; settings: CSNK2A1;CSNK2A3, 5 cell line mix lysate, Kinobeads ε, ref Reinecke et al. (2023), cited from earlier work
[2] = test system: PHKG2; settings: PHKG2, 5 cell line mix lysate, Kinobeads ε, ref Reinecke et al. (2023), cited from earlier work
[3] = target: TTK; design: method as in Reinecke et al. (2023); settings: 5 cell line mix lysate, Kinobeads ε, ref Reinecke et al. (2023), cited from earlier work
[4] = target: PRKCD; design: method as in Reinecke et al. (2023); settings: 5 cell line mix lysate, Kinobeads ε, ref Reinecke et al. (2023), cited from earlier work
[5] = test system: SLK; design: method as in Klaeger et al. (2017); settings: lysate 4 cell line mix (Colo205, K-562, MV-4-11, and SK-N-BE(2)), Kinobeads y, ref Klaeger et al. (2017); cited from earlier work

COc1cc(N2CCC(N3CCN(C)CC3)CC2)ccc1Nc1ncc(Cl)c(Nc2ccccc2P(C)(C)=O)n1 [Brigatinib]
EC50 [1]: 331 nM | pKDapp [1]: 6.48 | Kd ([1]; read-out: KDapp): 331 nM | EC50 [2]: 199 nM | pKDapp [2]: 6.71 | Kd ([2]; read-out: KDapp): 193 nM | Kd ([3]; read-out: KDapp): 629 nM | EC50 [3]: 629 nM | pKDapp [3]: 6.20 | Kd ([4]; read-out: KDapp): 24500 nM | EC50 [4]: 25800 nM | pKDapp [4]: 4.61
